# Measured values: patent US20230203043A1, “NOVEL IMIDAZOPYRAZINE DERIVATIVES” (Hoffmann-La Roche Inc., priority 2020, published 2023)
# Structures can show the parent of a compound that is named as a salt.
# Tested on: Acinetobacter baumannii ATCC17961
# Test: Antimicrobial susceptibility testing: 90% growth inhibitory concentration (IC90) determination in Iso-Sensitest broth, OD600 growth
# Type: cell-based
# Conditions: Acinetobacter baumannii, ATCC17961, 16 h, read-out: A. baumannii ATCC 17961 IC90 (uM), strain ATCC 17961, OD600 growth over 16 h
# In short: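 Growth monitored at 600 nm every 20 min for 16 h at 35±2 °C, inoculum ~5×10^(5) CFU/ml in Iso-Sensitest medium. Compounds in 10-point twofold series, e.g. 50 to 0.097 μM final; 90% inhibitory concentration taken from log-phase growth.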
row,Compound,IC90
1,"CCc1cc(Nc2nccn3c(-c4cn(CC(F)F)nc4C(F)(F)F)cnc23)ccc1C(=O)NCCCNC(=O)[C@@H]1CC[C@H](N)C1 [Example 543, N-(3-((1R,3S)-3-aminocyclopentane-1-carboxamido)propyl)-4-((3-(1-(2,2-difluoroethyl)-3-(trifluoromethyl)-1H-pyrazol-4-yl)imidazo[1,2-a]pyrazin-8-yl)amino)-2-ethylbenzamide formate]",0.162 µM
2,"CCc1cc(Nc2nccn3c(-c4cn(CC(F)F)nc4C(F)(F)F)cnc23)ccc1C(=O)NCC(=O)N1CCCC(N)C1 (stereo not drawn) [Example 544, N-[2-(3-amino-1-piperidyl)-2-oxo-ethyl]-4-[[3-[1-(2,2-difluoroethyl)-3-(trifluoromethyl)pyrazol-4-yl]imidazo[1,2-a]pyrazin-8-yl]amino]-2-ethyl-benzamide formate]",0.232 µM
3,"CCc1cc(Nc2nccn3c(-c4cn(CC(F)F)nc4C(F)(F)F)cnc23)ccc1C(=O)NCC(=O)N1CCNC(C)C1 (stereo not drawn) [Example 545, 4-[[3-[1-(2,2-difluoroethyl)-3-(trifluoromethyl)pyrazol-4-yl]imidazo[1,2-a]pyrazin-8-yl]amino]-2-ethyl-N-[2-(3-methylpiperazin-1-yl)-2-oxo-ethyl]benzamide formate]",0.306 µM
4,"CCc1cc(Nc2nccn3c(-c4cn(CC(F)F)nc4C(F)(F)F)cnc23)ccc1C(=O)NCC(=O)NCC1(O)CNC1 [Example 546, 4-[[3-[1-(2,2-difluoroethyl)-3-(trifluoromethyl)pyrazol-4-yl]imidazo[1,2-a]pyrazin-8-yl]amino]-2-ethyl-N-[2-[(3-hydroxyazetidin-3-yl)methylamino]-2-oxo-ethyl]benzamide formate]",0.298 µM
5,"CCc1cc(Nc2nccn3c(-c4cn(CC(F)F)nc4C(F)(F)F)cnc23)ccc1C(=O)NCC(=O)NCC1CNC1 [Example 547, N-[2-(azetidin-3-ylmethylamino)-2-oxo-ethyl]-4-[[3-[1-(2,2-difluoroethyl)-3-(trifluoromethyl)pyrazol-4-yl]imidazo[1,2-a]pyrazin-8-yl]amino]-2-ethyl-benzamide formate]",0.298 µM

# Same assay, conditions: Acinetobacter baumannii, ATCC17961, 16 h, strain ATCC 17961, OD600 growth over 16 h, read-out: A. baumannii ATCC 17961 IC90
row,IC90,Compound
1,0.196 µM,"CCc1cc(Nc2nccn3c(-c4cn(CC(F)F)nc4C(F)(F)F)cnc23)ccc1C(=O)NCCCNC(=O)[C@H]1C[C@H](N)C1 [Example 542, N-(3-((1r,3r)-3-aminocyclobutane-1-carboxamido)propyl)-4-((3-(1-(2,2-difluoroethyl)-3-(trifluoromethyl)-1H-pyrazol-4-yl)imidazo[1,2-a]pyrazin-8-yl)amino)-2-ethylbenzamide formate]"
2,0.267 µM,"CCc1cc(Nc2nccn3c(-c4cn(CC(F)F)nc4C(F)(F)F)cnc23)ccc1C(=O)NCC(=O)NCC1CCCN1 (stereo not drawn) [Example 548, 4-[[3-[1-(2,2-difluoroethyl)-3-(trifluoromethyl)pyrazol-4-yl]imidazo[1,2-a]pyrazin-8-yl]amino]-2-ethyl-N-[2-oxo-2-(pyrrolidin-2-ylmethylamino)ethyl] benzamide formate]"
3,0.235 µM,"CCc1cc(Nc2nccn3c(-c4cn(CC(F)F)nc4C(F)(F)F)cnc23)ccc1C(=O)NCC(=O)NCC1CCNC1 (stereo not drawn) [Example 549, 4-[[3-[1-(2,2-difluoroethyl)-3-(trifluoromethyl)pyrazol-4-yl]imidazo[1,2-a]pyrazin-8-yl]amino]-2-ethyl-N-[2-oxo-2-(pyrrolidin-3-ylmethylamino)ethyl] benzamide formate]"
4,0.261 µM,"CCc1cc(Nc2nccn3c(-c4cn(CC(F)F)nc4C(F)(F)F)cnc23)ccc1C(=O)NCC(=O)NCC1CCNCC1 [Example 550, 4-[[3-[1-(2,2-difluoroethyl)-3-(trifluoromethyl)pyrazol-4-yl]imidazo[1,2-a]pyrazin-8-yl]amino]-2-ethyl-N-[2-oxo-2-(4-piperidylmethylamino)ethyl] benzamide formate]"
